In ChEMBL document CHEMBL3232845 (Bioorg Med Chem Lett, 2014):

Experiments:
[1] = target: Serine/threonine-protein kinase D2 (Homo sapiens) (UniProt Q9BZL6); test: Inhibition of human PKD2 assessed as enzyme activity at 1 uM relative to control; set-up: scale not given: the % may be the effect or the level left
[2] = target: Calcium/calmodulin-dependent protein kinase type II subunit delta (Homo sapiens) (UniProt Q13557); test: Inhibition of human CAMK2d assessed as enzyme activity at 1 uM relative to control; set-up: scale not given: the % may be the effect or the level left
[3] = target: AMP-activated protein kinase (AMPK) alpha-1/beta-1/gamma-1 (Homo sapiens) (UniProt P54619+Q9Y478+Q13131); test: Inhibition of human AMPKA1/B1/G1 assessed as enzyme activity at 1 uM relative to control; assay type: protein-complex assay; set-up: scale not given: the % may be the effect or the level left
[4] = target: Ribosomal protein S6 kinase alpha-1 (Homo sapiens) (UniProt Q15418); test: Inhibition of human Rsk1 assessed as enzyme activity at 1 uM relative to control; set-up: scale not given: the % may be the effect or the level left
Ribosomal protein S6 kinase alpha-1 (Homo sapiens), sequence (Q15418 whole entry): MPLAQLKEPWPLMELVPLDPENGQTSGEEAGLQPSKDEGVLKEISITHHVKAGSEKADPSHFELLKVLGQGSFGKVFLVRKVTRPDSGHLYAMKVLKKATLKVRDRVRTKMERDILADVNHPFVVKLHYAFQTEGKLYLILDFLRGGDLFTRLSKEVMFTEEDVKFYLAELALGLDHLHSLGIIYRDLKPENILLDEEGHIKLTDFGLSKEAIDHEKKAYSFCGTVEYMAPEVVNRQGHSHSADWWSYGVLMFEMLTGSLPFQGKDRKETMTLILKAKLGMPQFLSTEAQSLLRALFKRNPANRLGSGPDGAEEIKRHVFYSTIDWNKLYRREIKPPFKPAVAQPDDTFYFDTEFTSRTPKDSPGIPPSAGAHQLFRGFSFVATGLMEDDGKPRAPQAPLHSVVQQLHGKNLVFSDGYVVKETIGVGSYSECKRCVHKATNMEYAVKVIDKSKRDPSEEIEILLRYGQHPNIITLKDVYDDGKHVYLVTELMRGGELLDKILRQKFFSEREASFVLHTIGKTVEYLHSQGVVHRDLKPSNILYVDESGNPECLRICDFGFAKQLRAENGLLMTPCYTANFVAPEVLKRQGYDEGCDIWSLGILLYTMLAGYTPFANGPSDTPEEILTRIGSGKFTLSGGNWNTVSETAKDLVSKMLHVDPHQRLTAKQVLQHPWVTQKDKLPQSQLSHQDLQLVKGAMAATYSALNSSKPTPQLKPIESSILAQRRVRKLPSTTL

[5] = target: Ribosomal protein S6 kinase beta-1 (Homo sapiens) (UniProt P23443); test: Inhibition of human p70S6K assessed as enzyme activity at 1 uM relative to control; set-up: scale not given: the % may be the effect or the level left
[6] = target: Death-associated protein kinase 2 (Homo sapiens) (UniProt Q9UIK4); test: Inhibition of human DAPK2 assessed as enzyme activity at 1 uM relative to control; set-up: scale not given: the % may be the effect or the level left
[7] = target: Vascular endothelial growth factor receptor 2 (Homo sapiens) (UniProt P35968); test: Inhibition of human KDR assessed as enzyme activity at 1 uM relative to control; set-up: scale not given: the % may be the effect or the level left
[8] = target: cGMP-dependent protein kinase 1 (Homo sapiens) (UniProt Q13976); test: Inhibition of human PRKG1alpha assessed as enzyme activity at 1 uM relative to control; set-up: scale not given: the % may be the effect or the level left
[9] = target: Calcium/calmodulin-dependent protein kinase type II subunit beta (Homo sapiens) (UniProt Q13554); test: Inhibition of human CAMK2b assessed as enzyme activity at 1 uM relative to control; set-up: scale not given: the % may be the effect or the level left
[10] = target: Protein kinase C alpha type (Homo sapiens) (UniProt P17252); test: Inhibition of human PKCalpha assessed as enzyme activity at 1 uM relative to control; set-up: scale not given: the % may be the effect or the level left
[11] = target: Ephrin type-A receptor 3 (Homo sapiens) (UniProt P29320); test: Inhibition of human EphA3 assessed as enzyme activity at 1 uM relative to control; set-up: scale not given: the % may be the effect or the level left
[12] = target: Ribosomal protein S6 kinase alpha-6 (Homo sapiens) (UniProt Q9UK32); test: Inhibition of human Rsk4 assessed as enzyme activity at 1 uM relative to control; set-up: scale not given: the % may be the effect or the level left
[13] = target: cAMP-dependent protein kinase catalytic subunit alpha (Homo sapiens) (UniProt P17612); test: Inhibition of human PKAC-alpha assessed as enzyme activity at 1 uM relative to control; set-up: scale not given: the % may be the effect or the level left
[14] = target: Serine/threonine-protein kinase WNK3 (Homo sapiens) (UniProt Q9BYP7); test: Inhibition of human WNK3 assessed as enzyme activity at 1 uM relative to control; set-up: scale not given: the % may be the effect or the level left
Serine/threonine-protein kinase WNK3 (Homo sapiens), sequence (Q9BYP7 whole entry): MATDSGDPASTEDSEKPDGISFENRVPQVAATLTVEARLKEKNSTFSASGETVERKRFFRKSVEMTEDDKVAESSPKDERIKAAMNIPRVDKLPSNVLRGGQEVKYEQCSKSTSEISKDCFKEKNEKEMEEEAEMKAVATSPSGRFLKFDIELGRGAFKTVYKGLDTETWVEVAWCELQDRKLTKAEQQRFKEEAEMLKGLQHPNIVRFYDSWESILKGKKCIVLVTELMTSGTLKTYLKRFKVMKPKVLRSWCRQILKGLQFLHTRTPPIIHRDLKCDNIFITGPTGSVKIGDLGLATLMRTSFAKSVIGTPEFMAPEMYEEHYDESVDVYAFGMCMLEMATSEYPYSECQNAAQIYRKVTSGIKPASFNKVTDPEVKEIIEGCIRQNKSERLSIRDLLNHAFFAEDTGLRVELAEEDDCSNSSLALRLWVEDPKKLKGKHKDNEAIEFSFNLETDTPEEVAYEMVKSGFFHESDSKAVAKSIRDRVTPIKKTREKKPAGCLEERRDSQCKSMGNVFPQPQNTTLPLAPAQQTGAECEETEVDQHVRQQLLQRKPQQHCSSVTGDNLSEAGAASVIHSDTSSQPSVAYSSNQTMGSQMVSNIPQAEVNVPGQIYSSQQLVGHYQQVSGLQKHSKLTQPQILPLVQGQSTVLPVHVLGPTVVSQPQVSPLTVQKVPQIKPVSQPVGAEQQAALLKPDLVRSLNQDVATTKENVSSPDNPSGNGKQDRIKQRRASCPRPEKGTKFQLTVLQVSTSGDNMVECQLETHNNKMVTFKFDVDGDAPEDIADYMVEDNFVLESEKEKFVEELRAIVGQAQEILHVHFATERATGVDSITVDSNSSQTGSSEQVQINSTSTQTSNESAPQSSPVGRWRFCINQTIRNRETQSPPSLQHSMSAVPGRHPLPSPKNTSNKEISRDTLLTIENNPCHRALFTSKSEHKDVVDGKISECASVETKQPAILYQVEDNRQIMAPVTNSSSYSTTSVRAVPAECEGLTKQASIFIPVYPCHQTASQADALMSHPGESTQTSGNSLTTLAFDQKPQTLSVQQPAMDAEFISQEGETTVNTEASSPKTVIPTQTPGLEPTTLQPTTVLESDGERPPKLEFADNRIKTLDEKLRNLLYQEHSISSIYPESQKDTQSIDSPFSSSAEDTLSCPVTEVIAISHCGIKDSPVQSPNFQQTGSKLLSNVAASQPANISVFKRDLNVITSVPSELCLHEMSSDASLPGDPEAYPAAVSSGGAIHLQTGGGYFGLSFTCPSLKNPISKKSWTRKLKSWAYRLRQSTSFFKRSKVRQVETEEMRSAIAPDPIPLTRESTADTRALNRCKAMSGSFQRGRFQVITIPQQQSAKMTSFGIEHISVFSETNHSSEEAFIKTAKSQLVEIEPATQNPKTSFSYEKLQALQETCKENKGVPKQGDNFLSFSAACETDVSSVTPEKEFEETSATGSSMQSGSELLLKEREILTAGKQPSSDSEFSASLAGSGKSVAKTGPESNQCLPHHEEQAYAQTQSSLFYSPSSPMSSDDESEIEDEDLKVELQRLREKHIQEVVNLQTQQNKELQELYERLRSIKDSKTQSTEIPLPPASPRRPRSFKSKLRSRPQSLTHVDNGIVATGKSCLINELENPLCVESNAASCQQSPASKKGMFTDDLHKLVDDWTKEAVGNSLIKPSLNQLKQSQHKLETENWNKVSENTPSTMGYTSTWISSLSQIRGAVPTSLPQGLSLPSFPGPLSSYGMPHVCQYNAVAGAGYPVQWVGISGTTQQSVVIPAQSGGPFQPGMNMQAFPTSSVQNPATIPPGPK

[15] = target: Tyrosine-protein kinase BTK (Homo sapiens) (UniProt Q06187); test: Inhibition of human BTK assessed as enzyme activity at 1 uM relative to control; set-up: scale not given: the % may be the effect or the level left
[16] = target: Serine/threonine-protein kinase pim-1 (Homo sapiens) (UniProt P11309); test: Inhibition of human Pim-1 assessed as enzyme activity at 1 uM relative to control; set-up: scale not given: the % may be the effect or the level left
Serine/threonine-protein kinase pim-1 (Homo sapiens), sequence (P11309 whole entry, looked up): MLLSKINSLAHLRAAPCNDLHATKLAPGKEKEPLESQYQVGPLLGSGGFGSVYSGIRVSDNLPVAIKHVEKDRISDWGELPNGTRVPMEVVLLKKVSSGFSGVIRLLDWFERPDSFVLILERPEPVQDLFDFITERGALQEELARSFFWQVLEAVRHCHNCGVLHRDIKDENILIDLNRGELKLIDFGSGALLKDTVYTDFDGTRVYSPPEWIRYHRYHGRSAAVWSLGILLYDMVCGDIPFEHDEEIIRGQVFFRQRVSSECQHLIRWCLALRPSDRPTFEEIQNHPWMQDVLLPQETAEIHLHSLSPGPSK

[17] = target: Tyrosine-protein kinase ITK/TSK (Homo sapiens) (UniProt Q08881); test: Inhibition of human ITK assessed as enzyme activity at 1 uM relative to control; set-up: scale not given: the % may be the effect or the level left
[18] = target: Serine/threonine-protein kinase Sgk1 (Homo sapiens) (UniProt O00141); test: Inhibition of human SGK1 assessed as enzyme activity at 1 uM relative to control; set-up: scale not given: the % may be the effect or the level left
[19] = target: Angiopoietin-1 receptor (Homo sapiens) (UniProt Q02763); test: Inhibition of human Tie2 assessed as enzyme activity at 1 uM relative to control; set-up: scale not given: the % may be the effect or the level left
[20] = target: Protein kinase C delta type (Homo sapiens) (UniProt Q05655); test: Inhibition of human PKCdelta assessed as enzyme activity at 1 uM relative to control; set-up: scale not given: the % may be the effect or the level left
[21] = target: Serine/threonine-protein kinase MRCK beta (Homo sapiens) (UniProt Q9Y5S2); test: Inhibition of human MRCKbeta assessed as enzyme activity at 1 uM relative to control; set-up: scale not given: the % may be the effect or the level left
Serine/threonine-protein kinase MRCK beta (Homo sapiens), sequence (Q9Y5S2 whole entry): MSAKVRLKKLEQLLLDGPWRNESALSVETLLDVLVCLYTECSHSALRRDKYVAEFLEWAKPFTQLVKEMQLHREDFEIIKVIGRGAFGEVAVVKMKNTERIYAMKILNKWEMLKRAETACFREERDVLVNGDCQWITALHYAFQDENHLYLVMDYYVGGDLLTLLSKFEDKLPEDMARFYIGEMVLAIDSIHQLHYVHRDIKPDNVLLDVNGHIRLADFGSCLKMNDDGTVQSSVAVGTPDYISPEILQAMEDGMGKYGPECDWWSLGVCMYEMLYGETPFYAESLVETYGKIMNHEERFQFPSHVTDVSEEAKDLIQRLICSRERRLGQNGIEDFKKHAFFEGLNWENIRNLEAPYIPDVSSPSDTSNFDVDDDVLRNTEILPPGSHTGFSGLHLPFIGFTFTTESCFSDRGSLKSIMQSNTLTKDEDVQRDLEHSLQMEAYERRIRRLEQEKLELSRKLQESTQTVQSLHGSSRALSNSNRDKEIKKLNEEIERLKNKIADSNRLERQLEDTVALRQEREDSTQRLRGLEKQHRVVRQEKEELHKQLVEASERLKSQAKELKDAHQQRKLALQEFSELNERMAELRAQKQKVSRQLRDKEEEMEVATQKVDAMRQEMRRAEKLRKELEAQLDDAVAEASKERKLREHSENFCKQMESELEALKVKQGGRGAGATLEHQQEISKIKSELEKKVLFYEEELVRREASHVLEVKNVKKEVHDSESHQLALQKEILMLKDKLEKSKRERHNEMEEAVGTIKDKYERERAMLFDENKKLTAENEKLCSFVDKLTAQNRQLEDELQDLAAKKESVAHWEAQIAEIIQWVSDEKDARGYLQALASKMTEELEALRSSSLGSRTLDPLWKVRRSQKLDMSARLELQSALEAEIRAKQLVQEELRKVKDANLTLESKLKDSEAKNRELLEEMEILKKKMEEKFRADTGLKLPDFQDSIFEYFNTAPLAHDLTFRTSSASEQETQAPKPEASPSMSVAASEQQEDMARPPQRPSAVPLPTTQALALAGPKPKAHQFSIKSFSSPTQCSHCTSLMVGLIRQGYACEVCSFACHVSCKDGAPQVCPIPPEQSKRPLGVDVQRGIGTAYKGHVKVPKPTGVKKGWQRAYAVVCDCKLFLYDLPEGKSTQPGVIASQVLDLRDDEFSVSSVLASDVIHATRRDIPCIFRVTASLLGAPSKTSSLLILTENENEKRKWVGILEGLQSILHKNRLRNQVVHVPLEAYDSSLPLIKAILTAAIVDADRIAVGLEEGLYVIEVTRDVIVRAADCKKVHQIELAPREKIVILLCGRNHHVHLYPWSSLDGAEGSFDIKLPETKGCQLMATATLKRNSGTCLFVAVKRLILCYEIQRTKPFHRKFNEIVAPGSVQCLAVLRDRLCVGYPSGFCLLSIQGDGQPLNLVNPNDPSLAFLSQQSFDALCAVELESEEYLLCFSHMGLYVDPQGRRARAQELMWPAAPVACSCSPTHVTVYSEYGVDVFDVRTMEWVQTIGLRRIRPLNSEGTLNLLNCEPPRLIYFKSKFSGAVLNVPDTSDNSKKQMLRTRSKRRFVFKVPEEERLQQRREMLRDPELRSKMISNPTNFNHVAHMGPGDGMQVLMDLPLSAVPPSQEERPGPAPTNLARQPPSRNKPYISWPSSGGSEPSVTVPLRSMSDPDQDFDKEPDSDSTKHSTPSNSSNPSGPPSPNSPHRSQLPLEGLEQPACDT

[22] = target: Serine/threonine-protein kinase pim-3 (Homo sapiens) (UniProt Q86V86); test: Inhibition of human Pim-3 assessed as enzyme activity at 1 uM relative to control; set-up: scale not given: the % may be the effect or the level left
[23] = target: CDK3/Cyclin E (Homo sapiens) (UniProt P24864+Q00526); test: Inhibition of human CDK3/cyclinE assessed as enzyme activity at 1 uM relative to control; assay type: protein-complex assay; set-up: scale not given: the % may be the effect or the level left
[24] = target: Serine/threonine-protein kinase ULK3 (Homo sapiens) (UniProt Q6PHR2); test: Inhibition of human ULK3 assessed as enzyme activity at 1 uM relative to control; set-up: scale not given: the % may be the effect or the level left
[25] = target: Tyrosine-protein kinase JAK3 (Homo sapiens) (UniProt P52333); test: Inhibition of human JAK3 assessed as enzyme activity at 1 uM relative to control; set-up: scale not given: the % may be the effect or the level left
[26] = target: Tyrosine-protein kinase Lyn (Homo sapiens) (UniProt P07948); test: Inhibition of human Lyn assessed as enzyme activity at 1 uM relative to control; set-up: scale not given: the % may be the effect or the level left
[27] = target: Serine/threonine-protein kinase TAO1 (Homo sapiens) (UniProt Q7L7X3); test: Inhibition of human TAO1 assessed as enzyme activity at 1 uM relative to control; set-up: scale not given: the % may be the effect or the level left
[28] = target: Ephrin type-B receptor 2 (Homo sapiens) (UniProt P29323); test: Inhibition of human EphB2 assessed as enzyme activity at 1 uM relative to control; set-up: scale not given: the % may be the effect or the level left
[29] = target: Aurora kinase A (Homo sapiens) (UniProt O14965); test: Inhibition of human AURKA assessed as enzyme activity at 1 uM relative to control; set-up: scale not given: the % may be the effect or the level left
[30] = target: Inhibitor of nuclear factor kappa-B kinase subunit alpha (Homo sapiens) (UniProt O15111); test: Inhibition of human IKKalpha assessed as enzyme activity at 1 uM relative to control; set-up: scale not given: the % may be the effect or the level left
[31] = target: Insulin-like growth factor 1 receptor (Homo sapiens) (UniProt P08069); test: Inhibition of human IGF-1R assessed as enzyme activity at 1 uM relative to control; set-up: scale not given: the % may be the effect or the level left
[32] = target: Activin receptor type-1B (Homo sapiens) (UniProt P36896); test: Inhibition of human ALK4 assessed as enzyme activity at 1 uM relative to control; set-up: scale not given: the % may be the effect or the level left
[33] = target: Ephrin type-A receptor 1 (Homo sapiens) (UniProt P21709); test: Inhibition of human EphA1 assessed as enzyme activity at 1 uM relative to control; set-up: scale not given: the % may be the effect or the level left
[34] = target: Tyrosine-protein kinase Fyn (Homo sapiens) (UniProt P06241); test: Inhibition of human Fyn assessed as enzyme activity at 1 uM relative to control; set-up: scale not given: the % may be the effect or the level left
Tyrosine-protein kinase Fyn (Homo sapiens), sequence (P06241 2-537 limits assumed): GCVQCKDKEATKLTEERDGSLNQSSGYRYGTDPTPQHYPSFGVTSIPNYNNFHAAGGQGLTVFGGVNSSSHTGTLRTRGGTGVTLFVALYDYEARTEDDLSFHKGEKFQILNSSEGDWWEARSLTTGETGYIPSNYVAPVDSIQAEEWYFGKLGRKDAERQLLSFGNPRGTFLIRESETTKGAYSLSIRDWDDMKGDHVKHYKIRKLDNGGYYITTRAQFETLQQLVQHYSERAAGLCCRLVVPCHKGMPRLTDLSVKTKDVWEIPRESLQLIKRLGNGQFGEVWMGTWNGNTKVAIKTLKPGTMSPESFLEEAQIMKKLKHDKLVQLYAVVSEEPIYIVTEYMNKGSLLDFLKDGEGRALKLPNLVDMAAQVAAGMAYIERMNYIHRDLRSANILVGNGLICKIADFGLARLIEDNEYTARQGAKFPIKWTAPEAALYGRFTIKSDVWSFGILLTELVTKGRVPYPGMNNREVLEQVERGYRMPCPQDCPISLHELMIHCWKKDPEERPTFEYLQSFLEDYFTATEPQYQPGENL

[35] = target: Proto-oncogene tyrosine-protein kinase receptor Ret (Homo sapiens) (UniProt P07949); test: Inhibition of human Ret assessed as enzyme activity at 1 uM relative to control; set-up: scale not given: the % may be the effect or the level left
[36] = target: Serine/threonine-protein kinase B-raf (Homo sapiens) (UniProt P15056); test: Inhibition of B-Raf (unknown origin) at 1 uM
[37] = target: Serine/threonine-protein kinase ULK2 (Homo sapiens) (UniProt Q8IYT8); test: Inhibition of human ULK2 assessed as enzyme activity at 1 uM relative to control; set-up: scale not given: the % may be the effect or the level left

- Activity [1]: 95.5%
- Activity [2]: 94.5%
- Activity [3]: 95%
- Activity [4]: 145%
- Activity [5]: 112%
- Activity [7]: 112%
- Activity [8]: 112%
- Activity [9]: 107%
- Activity [10]: 97%
- Activity [11]: 108%
- Activity [12]: 120%
- Activity [13]: 110%
- Activity [14]: 107%
- Activity [15]: 102%
- Activity [16]: 147%
- Activity [17]: 102%
- Activity [18]: 121%
- Activity [19]: 118%
- Activity [20]: 100%
- Activity [21]: 104%
- Activity [22]: 97%
- Activity [23]: 106%
- Activity [24]: 92%
- Activity [25]: 99%
- Activity [26]: 98%
- Activity [27]: 88.5%
- Activity [28]: 94.5%
- Activity [29]: 97.5%
- Activity [30]: 129%
- Activity [31]: 108%
- Activity [32]: 109%
- Activity [33]: 101%
- Activity [34]: 91.5%
- Activity [35]: 98.5%
- inhibition [36]: < 60%
- Activity [37]: 99.5%
SMILES: CCCS(=O)(=O)Nc1cccc(Nc2ccc3ncn(C)c(=O)c3c2)c1C#N
- Activity [6]: 108%
